Several values for one entry are separate records, joined by “and”; a condition that tells them apart may be missing. Identical values can stand only once.
Tested on: Sap9
Experiment: 6 ng/μL Sap9 in 2 mM sodium phosphate buffer
Conditions: 37 °C, up to 3 h

Q: For DSHAKRHHGYKRKFHEKHHSHRGY, which fragment found is on record?
A: 6–24, major and 7–24, major and 13–24, major and 14–24, major

From paper PMC7391080 (2020)
